Literature values, collected in patent US10576045B2 (priority 2012, dated 2020).

Experiments:
[1] = 60 mg/day
[2] = obese patients with BED; 8 mg/day of reboxetine for 12 days
[3] = reboxetine 4 mg/day coadministered with olanzapine
anticholinergic binding = conditions: different animal models

| Structure (SMILES) | difference between treatment and placebo groups ([1]; end of the study, week 52) | weight loss compared to placebo ([1]; following 28 weeks of treatment) | binge eating behavior [2] | weight-gain associated with olanzapine administration [3] | serotonin reuptake inhibitory activity (serotonin reuptake) | dopamine reuptake inhibitory activity (dopamine reuptake) | anticholinergic binding activity (anticholinergic binding) | monoamine oxidase (MAO) inhibitory activity (monoamine oxidase (MAO)) |
| --- | --- | --- | --- | --- | --- | --- | --- | --- |
| CNCCC(Oc1ccc(C(F)(F)F)cc1)c1ccccc1 (racemic) [fluoxetine, (+−)-N-methyl-3-(p-trifluoromethylphenoxy)-3-phenylpropyl-amine] | no difference | statistically significant weight loss |  |  |  |  |  |  |
| CCOc1ccccc1O[C@H](c1ccccc1)[C@H]1CNCCO1 (relative stereo) [reboxetine, (R*,R*)-2-[(2-ethoxyphenoxy)-phenyl-methyl]morpholine] |  |  | reduced binge eating behavior | reduced the weight-gain | only marginal | no | no anticholinergic binding activity | substantially devoid |
